Columns and labels:
[1] = Evaluation of storage stability, Form A crystal versus amorphous matter (HPLC purity); format: physicochemical; conditions: airtight state
[2] = Dissolution of amorphous matter in various solvents (selection of crystallization solvents); format: physicochemical
Procedure: The amorphous matter (10 mg) of compound (I) was weighed into a borosilicate glass vial, each solvent in Table 3 was added at the corresponding amount of solvent added in Table 3, and confirmed whether or not the amorphous matter was dissolved. […] Subsequently, the vial was shaken at room temperature in an airtight state for 7 days. However, no solid precipitated in either case. […] It was therefore judged that they were unsuitable as a crystallization solvent.

[3] = Evaluation of hygroscopicity (equilibrium moisture measurement); format: physicochemical; conditions: 30° C.
Procedure: Equilibrium moisture measurement was performed on Form A crystal and the amorphous matter of compound (I) under the following conditions using a fully automated symmetric vapor sorption analyzer (TA Instruments Inc.; VTI-SA+). […] The change in appearance was also observed.

[4] = Evaluation of solubility in Japanese Pharmacopoeia test fluids; format: physicochemical; conditions: aqueous buffer, thermodynamic from solid; 2nd fluid for disintegration test of the Japanese Pharmacopoeia 16th edition (pH 6.8), 37° C., 30 minutes; read-out: Solubility (37° C.)
Procedure: Form A crystal of compound (I) (100 mg) was weighed into a borosilicate glass vial, and the 1st fluid for disintegration test/1st fluid for dissolution test of the Japanese Pharmacopoeia 16th edition (pH 1.2)(1 mL) or the 2nd fluid for disintegration test of the Japanese Pharmacopoeia 16th edition (pH 6.8)(1 mL) was added in a temperature and humidity test chamber (Amefrec Co., Ltd.; NO DOORα) adjusted to 37° C., followed by stirring. Form B crystal of ethane disulfonate of compound (I) (10 mg) was weighed into a borosilicate glass vial, and the 2nd fluid for disintegration test of the Japanese Pharmacopoeia 16th edition (pH 6.8) (0.1 mL) was added in a temperature and humidity test chamber (Amefrec Co., Ltd.; NO DOORα) adjusted to 37° C., followed by stirring. After 30 minutes, the inside of each vial was visually checked, and it was confirmed that each crystal was completely dissolved.

[5] = test system: fibromyalgia model rats; assay: Analgesic effect on allodynia in fibromyalgia model rats (von Frey, 50% response threshold); format: in vivo, rat; conditions: oral 10 mg/kg, measured 3 hours after administration, Day 7, compared to negative control group
Procedure: The analgesic effect of the crystal of compound (I) or the pharmacologically acceptable salt thereof against fibromyalgia syndrome was evaluated using fibromyalgia model rats (Sluka et al., Journal of Pharmacology and Experimental Therapeutics, 2002, vol. 302, pp. 1146-1150; Nagakura et al., Pain, 2009, vol. 146, pp. 26-33; Sluka et al., Pain, 2009, vol. 146, pp. 3-4). Form A crystal of compound (I) was used as a crystal of compound (I) or the pharmacologically acceptable salt thereof for evaluation.
The above model rats were prepared as follows. In experiments, 6-to 7-week-old SD male rats were used for 5 or 6 cases per group. 100 μL of acidic physiological saline adjusted to pH 4.0 was administered twice to the gastrocnemius muscle of the right hind paw of each rat (the day of the administration of acidic physiological saline was defined as Day 1 after the start of the experiment, and single dose administrations were carried out on Days 1 and 6 after the start of the experiment) under inhalation anesthesia with isoflurane. The thus prepared group was determined to be an acidic physiological saline group. As a control for the model, a group treated with a physiological saline instead of an acidic physiological saline was determined to be a physiological saline group.
Allodynia observed in fibromyalgia model rats was measured using a von Frey filaments according to a method described in a known publication (Chaplan et al., Journal of Neuroscience Methods, 1994, vol. 53, pp. 55-63) and a 50% response threshold (g) was determined. On Day 7 after the start of the experiment, allodynia was measured 3 hours after oral administration of Form A crystal of compound (I), and the analgesic effect was evaluated. Allodynia of the acidic physiological saline group was measured before oral administration of Form A crystal of compound (I). […] Allodynia was measured 3 hours after the oral administration of the crystal of compound (I), and the analgesic effect was evaluated. […]

[6] = test system: spinal nerve ligation model rats (neuropathic pain model rats); assay: Analgesic effect on allodynia in spinal nerve ligation model rats (von Frey, 50% response threshold); format: in vivo, rat; conditions: oral 10 mg/kg, measured 3 hours after administration, 8 days after ligation, compared to negative control group
Procedure: Analgesic effects of the crystal of compound (I) or the pharmacologically acceptable salt thereof upon neuropathic pain were evaluated using spinal nerve ligation model rats (Kim and Chung, Pain, 1992, vol. 50, p. 355). Form A crystal of compound (I) was used as a crystal of compound (I) or the pharmacologically acceptable salt thereof for evaluation.
The above model rats were prepared as follows. In experiments, 6-to 7-week-old SD male rats were used for 5 to 7 cases per group, and the lumbar skin and muscle of each rat were dissected to expose the L5 and L6 […] under inhalation anesthesia with isoflurane. After ligating the L5 and L6 spinal nerves with silk suture, the wound of each rat was sutured. Thus, a nerve ligation group was prepared. The group in which the nerve was exposed but not ligated was determined to be a sham surgery group.
Allodynia observed in spinal nerve ligation model rats was measured using a von Frey filaments according to a method described in a known publication (Chaplan et al., J. Neurosci. Methods, 1994, vol. 53, p. 55) and a 50% response threshold (g) was determined. Eight days after the ligation surgery, allodynia of the nerve ligation group was measured before oral administration of Form A crystal of compound (I). Rats with a 50% response threshold (average value of the right hind paw and the left hind paw) of 2 g to less than 6 g were considered to have developed allodynia. The rats were divided as neuropathic pain model rats into groups such that there was no significant difference in the 50% response threshold between groups. Allodynia was measured 3 hours after the oral administration of Form A crystal of compound (I), and the analgesic effect was evaluated. Pregabalin was used as a positive control.
Form A crystal of compound (I) was dissolved in water for injection (distilled water) to result in concentrations of 5, 10, and 20 mg/mL, and orally administered in a dose volume of 1 mL per kg body weight. Pregabalin was dissolved in water for injection (distilled water) to result in a concentration of 10 mg/mL and orally administered in a dose volume of 1 mL per kg of body weight. Water for injection (distilled water) was orally administered to the sham surgery group. A group in which water for injection (distilled water) was orally administered to rats in the nerve ligation group was defined as a negative control group.
The horizontal axis represents the solution to be administered in each group, namely, the nerve ligation group or sham surgery group, and the vertical axis represents the 50% response threshold (g) (mean±standard error, n=5 to 7). […]

[7] = 40° C., relative humidity 75%, 8 weeks

## CN(C)C1CCN(C(=O)C[C@H](O)c2nccn2C)CC1 [Amorphous matter, (S)-1-(4-(dimethylamino)piperidin-1-yl)-3-hydroxy-3-(1-methyl-1H-imidazol-2-yl)propan-1-one]
[1]; [7]
  Chemical purity, After storage: 97.2%
  Decomposition product increased by not less than 0.15% after storage: 4 different
  Optical purity, After storage: 98.7 % ee
[1]; 60° C., 4 weeks
  Chemical purity, After storage: 91.5%
  Decomposition product increased by not less than 0.15% after storage: 7 different
  Optical purity, After storage: 98.9 % ee
[2]; 1-Butanol, 0.02 mL added, 500 mg/mL
  Appearance of solution: Soluble
[2]; 1-Propanol, 0.02 mL added, 500 mg/mL
  Appearance of solution: Soluble
[2]; 2-Butanone, 0.02 mL added, 500 mg/mL
  Appearance of solution: Soluble
[2]; 2-Propanol, 0.005 mL added, 2000 mg/mL
  Appearance of solution: Soluble
[2]; 2-Propanol, 0.02 mL added, 500 mg/mL
  Appearance of solution: Soluble
[2]; 4-Methyl-2-pentanone, 0.02 mL added, 500 mg/mL
  Appearance of solution: Soluble
[2]; Acetone, 0.01 mL added, 1000 mg/mL
  Appearance of solution: Soluble
[2]; Acetone, 0.02 mL added, 500 mg/mL
  Appearance of solution: Soluble
[2]; Acetonitrile, 0.005 mL added, 2000 mg/mL
  Appearance of solution: Soluble
[2]; Acetonitrile, 0.02 mL added, 500 mg/mL
  Appearance of solution: Soluble
[2]; Chlorobenzene, 0.02 mL added, 500 mg/mL
  Appearance of solution: Soluble
[2]; Chloroform, 0.005 mL added, 2000 mg/mL
  Appearance of solution: Soluble
[2]; Chloroform, 0.02 mL added, 500 mg/mL
  Appearance of solution: Soluble
[2]; Cyclohexane, 0.02 mL added, 500 mg/mL
  Appearance of solution: Insoluble
[2]; Cyclohexane, 3 mL added, 3 mg/mL
  Appearance of solution: not dissolved at all
[2]; Cyclohexane, 3 mL added, 3 mg/mL, listed as amorphous matter of compound (I)
  Appearance of solution: Insoluble
[2]; Ethanol, 0.02 mL added, 500 mg/mL
  Appearance of solution: Soluble
[2]; Ethyl acetate, 0.005 mL added, 2000 mg/mL
  Appearance of solution: Soluble
[2]; Ethyl acetate, 0.01 mL added, 1000 mg/mL
  Appearance of solution: Soluble
[2]; Ethyl acetate, 0.02 mL added, 500 mg/mL
  Appearance of solution: Soluble
[2]; Ethyl formate, 0.02 mL added, 500 mg/mL
  Appearance of solution: Soluble
[2]; Heptane, 0.02 mL added, 500 mg/mL
  Appearance of solution: Insoluble
[2]; Heptane, 3 mL added, 3 mg/mL
  Appearance of solution: not dissolved at all
[2]; Heptane, 3 mL added, 3 mg/mL, listed as amorphous matter of compound (I)
  Appearance of solution: Insoluble
[2]; Isobutyl acetate, 0.02 mL added, 500 mg/mL
  Appearance of solution: Soluble
[2]; Isopropyl acetate, 0.02 mL added, 500 mg/mL
  Appearance of solution: Soluble
[2]; Methanol, 0.005 mL added, 2000 mg/mL
  Appearance of solution: Soluble
[2]; Methanol, 0.02 mL added, 500 mg/mL
  Appearance of solution: Soluble
[2]; Methyl acetate, 0.02 mL added, 500 mg/mL
  Appearance of solution: Soluble
[2]; Tetrahydrofuran, 0.01 mL added, 1000 mg/mL
  Appearance of solution: Soluble
[2]; Tetrahydrofuran, 0.02 mL added, 500 mg/mL
  Appearance of solution: Soluble
[2]; Toluene, 0.005 mL added, 2000 mg/mL
  Appearance of solution: Soluble
[2]; Toluene, 0.02 mL added, 500 mg/mL
  Appearance of solution: Soluble
[2]; Water, 0.02 mL added, 500 mg/mL
  Appearance of solution: Soluble
[2]; each solvent in Table 3 (text summary; cyclohexane and heptane excepted)
  concentration at which completely dissolved: ≥ 500000 µg/mL
[3]
  relative humidity at which the substance deliquesced: less than 5%
[3]; humidification, listed as amorphous matter
  Change in appearance: turned into oil matter

## CN(C)C1CCN(C(=O)C[C@H](O)c2nccn2C)CC1 [Form B crystal of ethane disulfonate, (S)-1-(4-(dimethylamino)piperidin-1-yl)-3-hydroxy-3-(1-methyl-1H-imidazol-2-yl)propan-1-one]
[4]
  solubility at 30 min: > 100 mg/mL

## CC(C)C[C@H](CN)CC(=O)O [pregabalin, reference compound]
[5]
  improvement of allodynia (50% response threshold): significant improvement
[6]
  improvement of allodynia (50% response threshold): significant improvement

From patent publication US11834431B2, “Crystals of cyclic amine derivative and pharmaceutical use thereof” (Toray Industries, Inc., priority 2016, dated 2023)
